The source made the active and inactive calls. No rule for the calls is given here.
What follows are molecules tested against Ubiquitin-conjugating enzyme E2 N (Homo sapiens) (UniProt P61088) (assay: UBE2N binders by NMR, biophysical, purified protein (AID 1552)). Conditions: NMR binding to purified UBE2N.
Sequence of Ubiquitin-conjugating enzyme E2 N (Homo sapiens) (P61088 whole entry, looked up): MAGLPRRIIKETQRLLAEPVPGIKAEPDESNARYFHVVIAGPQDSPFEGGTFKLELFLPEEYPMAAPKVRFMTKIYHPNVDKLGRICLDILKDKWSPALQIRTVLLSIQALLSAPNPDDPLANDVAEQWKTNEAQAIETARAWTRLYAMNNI
S=C(CN1CCCC1=S)N1CCOCC1 was tested, and the Kd was > 4 mM (inactive). In the case of NC(=O)CSc1nnnn1-c1ccccc1, the Kd is reported as > 4 mM (inactive). With CNC(=O)c1cc(S(=O)(=O)N(C)C)ccc1Cl the Kd was > 4 mM (inactive). CC(=O)Cc1nsc(NC(=O)c2ccc(C)cc2)n1 was tested, and the Kd was > 4 mM (inactive). Cn1nnc2cc(CO)ccc21 was tested, and the Kd was > 4 mM (inactive). In the case of Cn1c(SCC(N)=O)nc2ccccc2c1=O, the Kd is reported as > 4 mM (inactive). For c1cc2n(c1)CCNC2c1ccncc1 (stereo not given), the Kd was > 4 mM (inactive). For O=C1CSC2(CN3CCC2CC3)N1 (stereo not given), the Kd was > 4 mM (inactive). NC(=O)CSc1nnc2ccc(-c3ccccn3)nn12 was tested, and the Kd was > 4 mM (inactive). Cc1nc2ccccc2c2c1C(=O)N(C)C2=O was tested, and the Kd was > 4 mM (inactive). For COc1cc2c(cc1OC)C1Cc3ccc(OC)c(OC)c3CN1CC2 (stereo not given), the Kd was > 4 mM (inactive). For O=C1CNC(=O)/C1=C/c1ccc(O)cc1, the Kd was > 4 mM (inactive). In the case of Cc1nc(SCC#N)c2c(C)c(C)sc2n1, the Kd is reported as > 4 mM (inactive). With OCc1ccc(-n2cncn2)cc1 the Kd was > 4 mM (inactive). For O=C(Nc1cccc(Cl)c1)c1ccncc1, the Kd was > 4 mM (inactive). NCc1oc(-c2ccccc2)cc1C(=O)O was tested, and the Kd was > 4 mM (inactive). For O=C(/C=C/c1ccccc1)c1ccc(O)cc1, the Kd was > 4 mM (inactive). In the case of Cc1ncoc1C(=O)Nc1ncc([N+](=O)[O-])s1, the Kd is reported as > 4 mM (inactive). In the case of Cc1noc(C)c1C(=O)N1CCN(c2ncccn2)CC1, the Kd is reported as > 4 mM (inactive). With COc1cc(OC)c2c(=O)c(OC)c(-c3ccc(OC)c(OC)c3)oc2c1 the Kd was > 4 mM (inactive). With S=C(Cc1cccnc1)N1CCOCC1 the Kd was > 4 mM (inactive). For CC(=O)Oc1ccc2c(c1C(C)C)CCC1C(C)(C)CCC[C@]21C (stereo not given in full), the Kd was > 4 mM (inactive). Cc1[nH]c2ccccc2c1Cc1n[nH]c(=S)n1C was tested, and the Kd was > 4 mM (inactive). For O=C(O)C1CCN(S(=O)(=O)c2cccs2)CC1, the Kd was > 4 mM (inactive). For N#CCSc1nc(-c2ccccc2)cs1, the Kd was > 4 mM (inactive). CC1CCN(S(=O)(=O)N(C)C)CC1 was tested, and the Kd was > 4 mM (inactive). In the case of NCc1ccc(-c2ccccn2)s1, the Kd is reported as > 4 mM (inactive). In the case of COc1ccc(-c2cc(=O)c3c(O)cc(O)c(-c4cc(-c5cc(=O)c6c(O)cc(O)cc6o5)ccc4OC)c3o2)cc1, the Kd is reported as > 4 mM (inactive). In the case of NC(=O)NC1NC(=O)NC1=O (stereo not given), the Kd is reported as > 4 mM (inactive). For O=C(O)c1ccc2snnc2c1, the Kd was > 4 mM (inactive). For CCOC(=O)CNC(=O)CSc1nnc(C)c(=O)[nH]1, the Kd was > 4 mM (inactive). In the case of Nc1ccc2c(C(F)(F)F)cc(=O)oc2c1, the Kd is reported as > 4 mM (inactive). With CN1CCC(NC(=O)Cc2c(F)cccc2Cl)CC1 the Kd was > 4 mM (inactive). For CC(=O)c1c(C)nc(-c2cccs2)n1O, the Kd was > 4 mM (inactive). O=C(c1ccccc1)c1ccccc1C(=O)N1CCOCC1 was tested, and the Kd was > 4 mM (inactive). OCc1ccc2c(c1)OCCO2 was tested, and the Kd was > 4 mM (inactive). Cc1csc2nc3ccccc3c(=O)n12 was tested, and the Kd was > 4 mM (inactive). CC(C)Nc1ncnc2c1nnn2C was tested, and the Kd was > 4 mM (inactive). For COC(=O)c1ccc2snnc2c1, the Kd was > 4 mM (inactive). For Cc1ccc(S(=O)(=O)CC(=O)N2CCCC2)cc1, the Kd was > 4 mM (inactive). O=C(O)c1ccc2occc2c1 was tested, and the Kd was > 4 mM (inactive). For Nc1nnc(Cc2ccc(Cl)cc2)s1, the Kd was > 4 mM (inactive). For CSc1nnc2ccc(-c3cccnc3)nn12, the Kd was > 4 mM (inactive). COC(=O)c1cn(C(=O)OC)c2ccccc12 was tested, and the Kd was > 4 mM (inactive). For COC1=CC23CCCN2CCc2cc4c(cc2C3C1O)OCO4 (stereo not given), the Kd was > 4 mM (inactive). In the case of O=C(NN1CCOCC1)c1ccccc1F, the Kd is reported as > 4 mM (inactive). C=CCCCCCCCCCCCC(O)CC(O)COC(C)=O (stereo not given) was tested, and the Kd was > 4 mM (inactive). O=C1CNCc2[nH]c3ccccc3c2N1c1ccccc1 was tested, and the Kd was > 4 mM (inactive). For COC(=O)c1ccc(C(=S)N2CCOCC2)cc1, the Kd was > 4 mM (inactive). For CN=C(C)c1c(O)n(C)c(=O)n(C)c1=O, the Kd was > 4 mM (inactive). With CC(C)=CCCC1(C)C=Cc2c(O)c3c(c(CC=C(C)C)c2O1)OC12C(=CCCC1C(C)(C)O[C@@]2(C/C=C(\C)C(=O)O)C(=O)O)C3=O (stereo not given in full) the Kd was > 4 mM (inactive). For CN1CCC=C(C(=O)O)C1, the Kd was > 4 mM (inactive). In the case of O=C(NN1C(=O)CSC1=S)c1ccccc1, the Kd is reported as > 4 mM (inactive). COc1ccc(C)cc1S(=O)(=O)N1CCCCC1 was tested, and the Kd was > 4 mM (inactive). O=c1ccc2cc(O[C@@H]3O[C@H](CO)[C@@H](O)[C@H](O)[C@H]3O)c(O)cc2o1 was tested, and the Kd was > 4 mM (inactive). In the case of N#CC(O[C@@H]1O[C@H](CO[C@@H]2O[C@H](CO)[C@@H](O)[C@H](O)[C@H]2O)[C@@H](O)[C@H](O)[C@H]1O)c1ccccc1 (stereo not given in full), the Kd is reported as > 4 mM (inactive). In the case of N/N=C/c1cccnc1, the Kd is reported as > 4 mM (inactive). With NC(=O)Cn1nc2c3c(cccc3c1=O)-c1ccccc1-2 the Kd was > 4 mM (inactive). For COc1ccc(-c2nc(C)sc2CC(=O)O)cc1, the Kd was > 4 mM (inactive). For N#C/C(=C\c1ccc[nH]1)S(=O)(=O)c1ccccc1, the Kd was > 4 mM (inactive). With c1ccc(-c2nnc(CNCc3ccco3)o2)cc1 the Kd was > 4 mM (inactive). For O=C(O)/C=C1\NC(=O)c2ccccc21, the Kd was > 4 mM (inactive). In the case of COC(=O)[C@@H]1OC(=O)[C@H]2O[C@@]23[C@@]1(C)CCC1[C@@]2(C)CCC(=O)C(C)(C)C2C[C@@H](OC(C)=O)[C@]13C (stereo not given in full), the Kd is reported as > 4 mM (inactive). For O=c1[nH]oc2ccccc12, the Kd was > 4 mM (inactive). With CCc1cc2c(SCC(=O)O)ncnc2s1 the Kd was > 4 mM (inactive). In the case of O=C(c1ccco1)N1CCN(Cc2cccc(F)c2)CC1, the Kd is reported as > 4 mM (inactive). O=C(NCO)c1ccc([N+](=O)[O-])cc1 was tested, and the Kd was > 4 mM (inactive). With COc1ccc2c(c1)C(NC(C)=O)C(=O)N2C (stereo not given) the Kd was > 4 mM (inactive). In the case of Nc1cc(=O)[nH]c(SCC(=O)Nc2nccs2)n1, the Kd is reported as > 4 mM (inactive). For O=C(/C=C(\O)c1ccccc1)c1ccccc1O, the Kd was > 4 mM (inactive). With CC(C)(C)CC(=O)N1CCC(C(N)=O)CC1 the Kd was > 4 mM (inactive). In the case of CC1(C)CC[C@]2(C(=O)O)CC[C@]3(C)C(=CCC4[C@@]5(C)CC[C@@H](O)C(C)(C)C5CC[C@]43C)C2C1 (stereo not given in full), the Kd is reported as > 4 mM (inactive). For COCc1cc(=O)oc2cc(O)c(Cl)cc12, the Kd was > 4 mM (inactive). CCC1(CC)C(=O)N=C(N)NC1=O was tested, and the Kd was > 4 mM (inactive). In the case of Cn1cnnc1SCC(=O)Nc1nccs1, the Kd is reported as > 4 mM (inactive). Nc1ccccc1C(=O)N1CCOCC1 was tested, and the Kd was > 4 mM (inactive). In the case of Cn1c(O)c(C=NCC2CCNCC2)c(=O)n(C)c1=O, the Kd is reported as > 4 mM (inactive). CN(C)S(=O)(=O)NCc1ccc2c(c1)OCO2 was tested, and the Kd was > 4 mM (inactive). In the case of O=C(O)c1ccc(CN2CCCCC2)o1, the Kd is reported as > 4 mM (inactive). O=C(O)CCCNC(=O)c1ccccc1C(=O)O was tested, and the Kd was > 4 mM (inactive). In the case of O=C(O)CN1CCNCC1, the Kd is reported as > 4 mM (inactive). In the case of Cc1nnc(NC(=O)C(C)Sc2nncn2C)s1 (stereo not given), the Kd is reported as > 4 mM (inactive). CC(=O)OC1CC[C@@]2(C)C(CCC3C2CC[C@]2(C)C(C4=CC(=O)OC4)C(OC(C)=O)CC32O)C1 (stereo not given in full) was tested, and the Kd was > 4 mM (inactive). With CC(CCC(=O)O)[C@H]1CCC2C3CC[C@@H]4C[C@H](O)CC[C@]4(C)C3CC[C@@]21C (stereo not given in full) the Kd was > 4 mM (inactive). S=C(NC1CC1)NN1CCOCC1 was tested, and the Kd was > 4 mM (inactive).
